The values below come from paper PMC2692652 (Biochemistry, 2009).

For one assay, the target named is R451A M. tb PGDH (Mycobacterium tuberculosis, UniProt P9WNX3, R450A). The class given is biochemical. Particulars: pH 7.5.
Assay [1] addresses T1, R501A M. tb PGDH (Mycobacterium tuberculosis, UniProt P9WNX3, R500A). The class given is biochemical. Particulars: pH 7.5.
The target of assay [2] is T2, K439A M. tb PGDH (Mycobacterium tuberculosis, UniProt P9WNX3, K438A). The class given is biochemical. Particulars: pH 7.5.
Assay [3] has as its target T3, H447A M. tb PGDH (Mycobacterium tuberculosis, UniProt P9WNX3, H446A). The class given is biochemical. Particulars: pH 7.5.
Assay [4] deals with T4, R446A M. tb PGDH (Mycobacterium tuberculosis, UniProt P9WNX3, R445A). The class given is biochemical. Conditions: pH 7.5.
Assay [5] concerns the target R446A-R501A-K439A M. tb PGDH (Mycobacterium tuberculosis, UniProt P9WNX3, K438A/R445A/R500A). The assay is classed as biochemical. Particulars: pH 7.5.
Assay [6] concerns the target T5, R451A-R501A-K439A M. tb PGDH (Mycobacterium tuberculosis, UniProt P9WNX3, K438A/R450A/R500A). The assay is classed as biochemical.
Assay [7] addresses T6, W29F M. tb PGDH (Mycobacterium tuberculosis, UniProt P9WNX3, W28F). The class given is biochemical. Conditions: pH 7.5.
Assay [8] addresses T7, W327F M. tb PGDH (Mycobacterium tuberculosis, UniProt P9WNX3, W326F). The class given is biochemical. Conditions: pH 7.5.
The target of assay [9] is T5, R451A-R501A-K439A M. tb PGDH. The class given is biochemical. Conditions: pH 7.5.
Assay [10] concerns the target T6, W29F M. tb PGDH. The assay is classed as binding. Particulars: pH 7.5.
The target in assay [11] is T7, W327F M. tb PGDH. The class given is binding. Particulars: pH 7.5.
Assay [12] deals with T5, R451A-R501A-K439A M. tb PGDH. The assay is classed as binding. Particulars: pH 7.5.
For assay [13], the system named is native and mutant M. tb PGDH. Briefly: NADH dependence of steady state activity, summary over enzymes. The assay is classed as biochemical, Mycobacterium tuberculosis.
Assay [14] concerns the target T1, R501A M. tb PGDH. Conditions: read-out: Ki, HPAP (substrate inhibition); cited from earlier work.
Assay [15] concerns the target T2, K439A M. tb PGDH. Conditions: read-out: Ki, HPAP (substrate inhibition); cited from earlier work.
Assay [16] deals with T3, H447A M. tb PGDH. Conditions: read-out: Ki, HPAP (substrate inhibition); cited from earlier work.
The target in assay [17] is T4, R446A M. tb PGDH. Particulars: read-out: Ki, HPAP (substrate inhibition); cited from earlier work.

As to `N[C@@H](CO)C(=O)O` [L-serine], the “n (Hill coefficient), serine inhibition, High Substrate” value at R451A M. tb PGDH is recorded as 1.7 ± 0.3; at R501A M. tb PGDH [1] it was 1.7 ± 0.1; at K439A M. tb PGDH [2], 1.2 ± 0.1; at H447A M. tb PGDH [3], 1.5 ± 0.1; on R446A M. tb PGDH [4], 0.9 ± 0.1. The “n (Hill coefficient), serine inhibition, Peak Substrate” value stood at 1.6 ± 0.1 at R451A M. tb PGDH; 1.5 ± 0.1 at R501A M. tb PGDH [1]; 1.2 ± 0.1 at K439A M. tb PGDH [2]; 1.7 ± 0.1 on H447A M. tb PGDH [3]; 1.3 ± 0.1 on R446A M. tb PGDH [4]; 1.0 ± 0.1 in assay [5]. The “Inhibition of catalytic activity by serine” value in [6] is “unable to be inhibited”.

Consider NADH, for which the “K0.5, Activity vs NADH” value at W29F M. tb PGDH [7] amounted to 99 ± 2 µM; at W327F M. tb PGDH [8], 89 ± 4 µM; in assay [9], 83 ± 13 µM. Further, the “n (Hill coefficient), Activity vs NADH” value on W29F M. tb PGDH [7] amounted to 2.2 ± 0.1; on W327F M. tb PGDH [8], 2.0 ± 0.1; in assay [9], 1.5 ± 0.2. Also, the “K0.5, FRET vs NADH” value is 1.9 ± 0.1 µM at W29F M. tb PGDH [10], 3.0 ± 0.3 µM on W327F M. tb PGDH [11] and 3.6 ± 0.1 µM in [12]. The entries for the “n (Hill coefficient), FRET vs NADH” value (at W29F M. tb PGDH [10]; on W327F M. tb PGDH [11]; in [12]) were 1.2 ± 0.1, 1.7 ± 0.3 and 2.3 ± 0.2, respectively. For the same compound, the “K0.5 for NADH for activity” value in assay [13] was 80 to 100 mM.

As to hydroxypyruvic acid phosphate [HPAP], the Ki is 1020 ± 30 µM at R501A M. tb PGDH [14], 54 ± 4 µM at K439A M. tb PGDH [15], 870 ± 50 µM at H447A M. tb PGDH [16] and 289 ± 15 µM at R446A M. tb PGDH [17].
